Consider three compounds from EP0135172A2, “Method for treatment of osteoporosis” (Takeda Chemical Industries, Ltd., priority 1983, dated 1985).

The subject of data set [1] is rat fetal long bone culture. Kind of data set: Bone resorption inhibiting activity in rat fetal long bone culture (45Ca release, method of Raisz). In kind it is cell-based, Sprague-Dawley rat. Particulars: for ^45Ca (%) released: incubated 3 days, mean ± S.D. of six bones; for bone resorption: result in words, summary of Table 3. The procedure:
Determination of bone resorption was performed by the method of Raisz [J. Clin. Invest. 44, 103-116 (1965)]. rhus, a Sprague-Dawley rat on the 19th day of pregnancy was subcutaneously injected with 50 p Ci of 45Ca (isotope of calcium, CaCl2 solution), and was laparotomized on the following day. The embryos were aseptically taken out, the forelimbs (radius and ulna) were cut off from the trunk under a binocular dissecting microscope, and the connective tissue and cartilage were removed as much as possible to prepare bone samples. Each bone sample was preincubated at 37°C for 24 hours in 0.6 mℓ of the medium containing 2 mg/mℓ of bovine serum albumin in BGJb medium (Fitton-Jackson modification) [GIBCO Laboratories, Grand Island, NY 14072 U.S.A.]. Then, the sample was further incubated for 3 days in the same medium as above in which 10 µg/mℓ or 25 µg/mℓ of compound (I) or 10 µg/mℓ of compound (II) had been incorporated. Then, the radioactivity of 45Ca in the medium and that of 45Ca in the bone were measured and the percentage (%) of ^45Ca released from the bone into the medium was calculated by the following formula.
Percentage (%) of 45 Ca released from bone into medium [formula]
As control, the bones of the embryos from the same litter were similarly incubated in the absence of compound (I) or (II) for 3 days.

Data set [2] has as its system young oophorectomized rats. The data set can be described thus: Estrogenic activity (uterine wet weight) in young oophorectomized rats. In kind it is in vivo, Sprague-Dawley rats. The method, then:
Sprague-Dawley rats, 33 days old and 11 days after oophorectomy for elimination of endogenous estrogenic activity, were used in groups of 6 to 7 animals. Compound (I) was suspended in a 1% aqueous solution of hydroxypropylcellulose and administered orally for 3 days, while as a representative example of the conventional estrogen drug, estrone was dissolved in sesame oil and administered subcutaneously for 3 days. On the fourth day, each animal was autopsied and its uterine wet weight was recorded.
Sprague-Dawley rats, 33 days old and 11 days after oophorectomy for elimination of endogenous estrogenic activity, were used in groups of 7 animals. Compound (II) was suspended in a 1% aqueous solution of hydroxypropylcellulose and administered orally.

A further data set relates to ICR mice. The data set can be described thus: Acute toxicity in mice. The class given is in vivo. The following applies: observed 14 days, LD50 could not be calculated. The method, then: (§1) Five-week-old ICR mice and 5-week-old Sprague-Dawley rats were respectively used in groups of 10 males and 10 females, and suspensions of compound (I) or compound (II) in olive oil were administered orally [2,500, 5,000 and 10,000 mg/kg of each compound] or subcutaneously [1,250, 2,500 and 5,000 mg/kg]. The animals were kept under observation for 14 days.

The test system of data set [3] is rat fetal long bone culture. Kind of data set: Inhibition of the bone resorption potentiating action of parathyroid hormone in rat fetal long bone culture. The class given is cell-based. The procedure:
The bone samples prepared in the same manner as Test Example 3 were pre-incubated for 24 hours in the same medium as that prepared in Test Example 3 which contains bovine serum album in BGJb medium (Fitton-Jackson modification). Then, in the concomitant presence of PTH (parathyroid hormone, a bone resorption stimulant) and compound (II), the samples were further incubated for 3 days and the percentage of ^45Ca released into the medium was calculated by means of the same formula as that in Test Example 3. As control experiments, the same determination was made for a control group using the medium supplemented with PTH alone.

In a further data set the test system is Sprague-Dawley rats. The data set can be described thus: Acute toxicity in rats. In kind it is in vivo. The following applies: observed 14 days, LD50 could not be calculated. The method, then:
as §1

[4] abbreviates: orally 2,500, 5,000 and 10,000 mg/kg in olive oil.
[5] abbreviates: subcutaneously 1,250, 2,500 and 5,000 mg/kg in olive oil.

`O=c1c(-c2ccc(O)cc2)coc2cc(O)ccc12` [Compound (II), 7,4'-dihydroxy-isoflavone]: the “^45Ca (%) released” value in data set [1] (10 µg/mℓ, control group 19.9 ± 5.0) is on record as 15.9 ± 1.3 %; in data set [3] (10 µg/ml in concomitant presence of PTH, incubated 3 days, control group (PTH alone) 30.8±4.3) it was 23.5±3.4 %. In addition, the bone resorption entry in data set [1] is “suppressed bone resorption”. In addition, the “Uterine wet weight (mg ± S.D.)” value is on record as 33.2 ± 0.8 mg in data set [2] (Test Example 2, daily dose 6.25 mg/kg orally, control group 31.1 ± 1.1); 32.8 ± 1.0 mg in data set [2] (Test Example 2, daily dose 25 mg/kg orally, control group 31.1 ± 1.1); 35.3 ± 1.3 mg in data set [2] (Test Example 2, daily dose 100 mg/kg orally, control group 31.1 ± 1.1); 62.3 ± 6.0 mg in data set [2] (Test Example 2, daily dose 400 mg/kg orally, control group 31.1 ± 1.1). Further, the “uterine weight increasing activity” value in data set [2] (orally, dose level of 400 mg/kg) is recorded as “showed mild uterine weight increasing activity”. Besides, the “deaths and toxic symptoms” value in the data set on ICR mice (setting [4]), with ICR mice (setting [5]), in the data set on Sprague-Dawley rats (setting [4]) and in the data set on Sprague-Dawley rats (setting [5]) was “None of the groups showed deaths nor toxic symptoms” in each case. Besides, in data set [3] (result in words, summary of Table 4), the PTH-stimulated bone resorption result is “suppressed PTH-stimulated bone resorption”.
`O=c1c(-c2ccccc2)coc2cc(O)ccc12` [Compound (I), 7-hydroxy-isoflavone]: the “^45Ca (%) released” value in data set [1] (10 µg/mℓ, control group 20.6 ± 3.8) was determined as 16.5 ± 2.5 %; in data set [1] (25 µg/mℓ, control group 20.6 ± 3.8) it was 13.5 ± 2.5 %. In addition, in data set [1], the bone resorption result was “suppressed bone resorption”. The “Uterine wet weight (mg ± S.D.)” value in data set [2] (daily dose 6.25 mg/kg orally for 3 days, control group 35.0 ± 1.0) was determined as 32.8 ± 1.1 mg; in data set [2] (daily dose 12.5 mg/kg orally for 3 days, control group 35.0 ± 1.0), 33.4 ± 0.9 mg; in data set [2] (daily dose 25 mg/kg orally for 3 days, control group 35.0 ± 1.0), 35.1 ± 0.8 mg; in data set [2] (daily dose 50 mg/kg orally for 3 days, control group 35.0 ± 1.0), 35.3 ± 1.7 mg; in data set [2] (daily dose 100 mg/kg orally for 3 days, control group 35.0 ± 1.0), 35.9 ± 1.0 mg; in data set [2] (daily dose 200 mg/kg orally for 3 days, control group 35.0 ± 1.0), 57.9 ± 1.0 mg. Besides, in data set [2] (daily dose 400 mg/kg orally for 3 days, control group 35.0 ± 1.0), the “Uterine wet weight (mg ± S.D.)” value is reported as 70.4 ± 6.7 mg. Moreover, the “uterine weight increasing effect, dose-response curve” value in data set [2] (orally, daily dose levels of 200 mg/kg and 400 mg/kg) is reported as “produced uterine weight increasing effect with a dose-response curve of moderate gradient”.
`C[C@]12CC[C@@H]3c4ccc(O)cc4CC[C@H]3[C@@H]1CCC2=O` [Estrone, estrone, reference compound]: the “Uterine wet weight (mg ± S.D.)” value in data set [2] (daily dose 0.0025 mg/kg subcutaneously in sesame oil for 3 days, control group 35.0 ± 1.0) worked out at 101.7 ± 4.6 mg; in data set [2] (daily dose 0.005 mg/kg subcutaneously in sesame oil for 3 days, control group 35.0 ± 1.0), 159.8 ± 9.4 mg; in data set [2] (daily dose 0.01 mg/kg subcutaneously in sesame oil for 3 days, control group 35.0 ± 1.0), 223.3 ± 12.5 mg.
